Experiments:
Pyricularia oryzae = assay type: cell-based; details: relative growth vs compound-free control (100%), 405 nm, 7 days after inoculation
Botrytis cinerea [1] = experiment: Activity against the grey mold in the microtiterplate test (Botrci); assay type: cell-based; details: relative growth vs compound-free control (100%), 405 nm, 7 days after inoculation
Phakopsora pachyrhizi = experiment: Protective control of soy bean rust on soy beans (Phakpa P1), green house; assay type: in vivo; details: 150ppm spray, inoculated 1 day after treatment, % diseased leaf area, untreated control 70
Botrytis cinerea [2] = experiment: Preventative fungicidal control of Botrytis cinerea on leaves of green pepper (Botrci P1), green house; assay type: in vivo; details: 150ppm spray, inoculated next day, % diseased leaf area after 5 days, untreated control 100
Method: (§1) The stock solution were prepared: a mixture of acetone and/or dimethylsulfoxide and the wetting agent/emulsifier Wettol, which is based on ethoxylated alkylphenoles, in a relation (volume) solvent-emulsifier of 99 to 1 was added to 25 mg of the compound to give a total of 5 ml. Water was then added to total volume of 100 ml. This stock solution was diluted with the described solvent-emulsifier-water mixture to the given concentration.
2. Preventative fungicidal control of Botrytis cinerea on leaves of green pepper (Botrci P1)
Young seedlings of green pepper were grown in pots to the 4 to 5 leaf stage. These plants were sprayed to run-off with an aqueous suspension, containing the concentration of active ingredient or their mixture mentioned in the table below. The next day the plants were inoculated with an aqueous biomalt solution containing the spore suspension of Botrytis cinerea. Then the plants were immediately transferred to a humid chamber. After 5 days at 22 to 24· C and a relative humidity close to 100 % the extent of fungal attack on the leaves was visually assessed as % diseased leaf area.

Puccinia recondita = experiment: Preventative control of brown rust on wheat (Puccrt P7), green house; assay type: in vivo; details: 16ppm spray, inoculated seven days after treatment, % diseased leaf area, untreated control 90
Method: as §1
5. Preventative control of brown rust on wheat caused by Puccinia recondita (Puccrt P7)
The first two developed leaves of pot-grown wheat seedling were sprayed to run-off with an aqueous suspension, containing the concentration of active ingredient or their mixture as described below. Seven days later the plants were inoculated with spores of Puccinia recondita. To ensure the success the artificial inoculation, the plants were transferred to a humid chamber without light and a relative humidity of 95 to 99 % and 20 to 24· C for 24 h. Then the trial plants were cultivated for 6 days in a greenhouse chamber at 20-24 °C and a relative humidity between 65 and 70 %. The extent of fungal attack on the leaves was visually assessed as % diseased leaf area.

Botrytis cinerea [3] = experiment: Long lasting control of Botrytis cinerea on leaves of green pepper (Botrci P7), green house; assay type: in vivo; details: 16ppm spray, inoculated 7 days after treatment, % diseased leaf area after 5 days, untreated control 90
Method: as §1
3. Long lasting control of Botrytis cinerea on leaves of green pepper (Botrci P7)
Young seedlings of green pepper were grown in pots to the 4 to 5 leaf stage. These plants were sprayed to run-off with an aqueous suspension, containing the concentration of active ingredient or their mixture mentioned in the table below. The plants were then cultivated in the greenhouse for 7 days and then inoculated with an aqueous biomalt solution containing the spore suspension of Botrytis cinerea. Then the plants were immediately transferred to a humid chamber. After 5 days at 22 to 24· C and a relative humidity close to 100 % the extent of fungal attack on the leaves was visually assessed as % diseased leaf area.

Septoria tritici = experiment: Preventative control of leaf blotch on wheat (Septtr P1), green house; assay type: in vivo; details: 150ppm spray, inoculated following day, % diseased leaf area after 4 weeks, untreated control 100
Method: as §1
4. Preventative control of leaf blotch on wheat caused by Septoria tritici (Septtr P1)
Leaves of pot-grown wheat seedling were sprayed to run-off with an aqueous suspension of the active compound or their mixture, prepared as described. The plants were allowed to air-dry. At the following day the plants were inoculated with an aqueous spore suspension of Septoria tritici. Then the trial plants were immediately transferred to a humid chamber at 18-22°C and a relative humidity close to 100 %. After 4 days the plants were transferred to a chamber with 18-22°C and a relative humidity close to 70 %. After 4 weeks the extent of fungal attack on the leaves was visually assessed as % diseased leaf area.

Structure (SMILES) | Growth (%) at 31ppm Pyrior (Pyricularia oryzae) | Growth (%) at 31ppm Botrci (Botrytis cinerea [1]) | Disease (%) at 150ppm Phakpa P1 (Phakopsora pachyrhizi) | Growth (%) at 8ppm Pyrior (Pyricularia oryzae) | further results
CC(c1ccccc1Cl)C(O)(C(C)n1cncn1)C1(Cl)CC1 (stereo not shown) [Compound I-1, 3-(1-Chlorocyclopropyl)-2-(2-chlorophenyl)-4-(1,2,4-triazol-1-yl)pentan-3-ol] | 0% | 19% | 10% | – | –
CC(n1cncn1)C(O)(Cc1ccccc1Cl)C1(Cl)CC1 (stereo not shown) [Compound I-3] | 0% | 1% | 0% | – | Disease (%) at 150ppm Botrci P1 (Botrytis cinerea [2]): 0%; Disease (%) at 16ppm Puccrt P7 (Puccinia recondita): 3%; Disease (%) at 16ppm Botrci P7 (Botrytis cinerea [3]): 15%; Disease (%) at 150ppm Septtr P1 (Septoria tritici): 3%
CC(n1ncnc1S)C(O)(Cc1ccccc1Cl)C1(Cl)CC1 (stereo not shown) [Compound I-6] | 0% | – | 0% | 6% | –
CC(c1ccccc1Cl)C(O)(C(C)n1ncnc1S)C1(Cl)CC1 (stereo not shown) [Compound I-7] | 0% | 0% | – | 0% | –
CC(n1cncn1)C(O)(Cc1ccc(Oc2ccc(Cl)cc2)cc1Cl)C1(Cl)CC1 (stereo not shown) [Compound I-4] | 6% | – | 15% | – | –
OC(Cc1ccccc1Cl)(Cn1cncn1)C1(Cl)CC1 (stereo not shown) [Comparative 2, reference compound] | – | – | – | – | Disease (%) at 16ppm Puccrt P7 (Puccinia recondita): 50%; Disease (%) at 16ppm Botrci P7 (Botrytis cinerea [3]): 30%
CC(n1cncn1)C(O)(Cc1ccc(-c2ccc(Cl)cc2)cc1Cl)C1(Cl)CC1 (stereo not shown) [Compound I-5] | 10% | – | – | – | –
OC(Cc1ccccc1Cl)(Cn1ncnc1S)C1(Cl)CC1 (stereo not shown) [Comparative 1, reference compound] | – | – | – | 33% | –

Source: patent publication EP2746260A1, “Substituted [1,2,4]triazole and imidazole compounds” (BASF SE, priority 2012, dated 2014)
